Here are results for 3 molecules from patent publication US4443436A, “C-20-Modified macrolide derivatives of the macrolide antibiotics tylosin, desmycosin, macrocin, and lactenocin” (Eli Lilly and Company, priority 1982, dated 1984).

SMILES strings stand for the structures. Converted amounts (≈) assume the structure as drawn.

Test [1] has as its system Staphylococcus aureus X1.1. The experiment in a line: MIC, standard agar-dilution assay, Staphylococcus aureus X1.1. It counts as cell-based. The settings on record: Staphylococcus aureus X1.1; agar dilution.
The subject of test [2] is Staphylococcus aureus V41. The experiment in a line: MIC, standard agar-dilution assay, Staphylococcus aureus V41. The class given is cell-based. The conditions noted are these: Staphylococcus aureus V41; penicillin-resistant strain; agar dilution.
Test [3] has as its system Staphylococcus aureus X400. The test is described as follows: MIC, standard agar-dilution assay, Staphylococcus aureus X400. It counts as cell-based. The settings on record: Staphylococcus aureus X400; methicillin-resistant strain; agar dilution. In general terms: In agar dilution, organisms are placed on agar that contains the substance at set levels.
Test [4] has as its system Staphylococcus aureus S13E. The test is described as follows: MIC, standard agar-dilution assay, Staphylococcus aureus S13E. It counts as cell-based. The settings on record: Staphylococcus aureus S13E; agar dilution.
Test [5] deals with Staphylococcus epidermidis EPI1. The test is described as follows: MIC, standard agar-dilution assay, Staphylococcus epidermidis EPI1. The class given is cell-based. The conditions noted are these: Staphylococcus epidermidis EPI1; agar dilution.
Test [6] concerns Staphylococcus epidermidis EPI2. The experiment in a line: MIC, standard agar-dilution assay, Staphylococcus epidermidis EPI2. The class given is cell-based. The conditions noted are these: Staphylococcus epidermidis EPI2; agar dilution.
Test [7] has as its system Streptococcus pyogenes C203. The test is described as follows: MIC, standard agar-dilution assay, Streptococcus pyogenes C203. It counts as cell-based. The conditions noted are these: Streptococcus pyogenes C203; agar dilution.
Test [8] has as its system Streptococcus pneumoniae Park I. The test is described as follows: microbe, parasite or virus in culture. The class given is cell-based. The settings on record: Streptococcus pneumoniae Park I; agar dilution.
For test [9], the system named is Streptococcus Group D X66. The test is described as follows: MIC, standard agar-dilution assay, Streptococcus Group D X66. The class given is cell-based. The conditions noted are these: Streptococcus Group D X66; agar dilution.
Test [10] concerns Streptococcus Group 9960. The experiment in a line: MIC, standard agar-dilution assay, Streptococcus Group 9960. The class given is cell-based. The conditions noted are these: Streptococcus Group 9960; agar dilution.
Test [11] concerns Haemophilus influenzae Holt. The test is described as follows: MIC, standard agar-dilution assay, Haemophilus influenzae Holt. It counts as cell-based. The settings on record: Haemophilus influenzae Holt; ampicillin-sensitive strain; agar dilution.
The subject of test [12] is Haemophilus influenzae R252. The experiment in a line: MIC, standard agar-dilution assay, Haemophilus influenzae R252. The class given is cell-based. The conditions noted are these: Haemophilus influenzae R252; ampicillin-resistant strain; agar dilution.
Test [13] concerns Staphylococcus aureus. The test is described as follows: MIC, broth-dilution microtiter test, Staphylococcus aureus. It counts as cell-based. The settings on record: broth-dilution microtiter. From the text:
(§1) The MIC's in Table X were obtained using conventional broth-dilution microtiter tests.

Test [14] concerns Streptococcus bovis 80. The test is described as follows: MIC, broth-dilution microtiter test, Streptococcus bovis 80. The class given is cell-based. The settings on record: Streptococcus bovis 80; broth-dilution microtiter.
From the text: as §1

The subject of test [15] is Pasteurella multocida 17E. The test is described as follows: MIC, broth-dilution microtiter test, Pasteurella multocida 17E. The class given is cell-based. The conditions noted are these: Pasteurella multocida 17E; bovine isolate; broth-dilution microtiter.
From the text: as §1

The test system of test [16] is Pasteurella multocida 60A. The experiment in a line: MIC, broth-dilution microtiter test, Pasteurella multocida 60A. The class given is cell-based. The settings on record: Pasteurella multocida 60A; avian isolate; broth-dilution microtiter.
From the text: as §1

Test [17] deals with Pasteurella hemolytica 22C. The experiment in a line: MIC, broth-dilution microtiter test, Pasteurella hemolytica 22C. The class given is cell-based. The conditions noted are these: Pasteurella hemolytica 22C; broth-dilution microtiter.
From the text: as §1

The test system of test [18] is Mycoplasma gallisepticum. The experiment in a line: MIC, broth-dilution microtiter test, Mycoplasma gallisepticum. The class given is cell-based. The settings on record: Mycoplasma gallisepticum; broth-dilution microtiter.
From the text: as §1

The test system of test [19] is Mycoplasma synoviae. The experiment in a line: MIC, broth-dilution microtiter test, Mycoplasma synoviae. The class given is cell-based. The conditions noted are these: Mycoplasma synoviae; broth-dilution microtiter.
From the text: as §1

Test [20] relates to Mycoplasma hyorhinis. The test is described as follows: MIC, broth-dilution microtiter test, Mycoplasma hyorhinis. It counts as cell-based. The conditions noted are these: Mycoplasma hyorhinis; broth-dilution microtiter.
From the text: as §1

Test [21] concerns Mycoplasma hyopneumoniae. The experiment in a line: MIC, broth-dilution microtiter test, Mycoplasma hyopneumoniae. The conditions noted are these: Mycoplasma hyopneumoniae; broth-dilution microtiter. It counts as cell-based.
From the text: as §1

Test [22] relates to Streptococcus pyogenes C203. The experiment in a line: In vivo protection of mice experimentally infected with S. pyogenes C203. The conditions noted are these: mice, doses given 1 and 4 hours post-infection. The method, then: The C-20 modified derivatives of this invention have shown in vivo antimicrobial activity against experimentally-induced infections in laboratory animals. When two doses of test compound were administered to mice experimentally infected with S. pyogenes C203, the activity observed was measured as an ED50 value [effective dose in mg/kg to protect 50% of the test animals: see Warren Wick, et al., J. Bacteriol. 81, 233-235 (1961)].

On to `CCC1OC(=O)CC(O)C(C)C(OC2OC(C)C(O)C(N(C)C)C2O)C(CCOc2ccccc2)CC(C)C(=O)C=CC(C)=CC1COC1OC(C)C(O)C(O)C1OC` (stereo not drawn) [Compound 58, 20-DH-20-O-Phenyllactenocin], for which the MIC in test [1], in test [2], in test [3], in [4], in test [5] and in test [6] was 0.25 µg/mL (≈ 0.299 µM) throughout. The MIC in test [7] worked out at 0.06 µg/mL (≈ 0.0718 µM); in test [8], 0.25 µg/mL (≈ 0.299 µM); in [9], 4 µg/mL (≈ 4.78 µM); in [10] it was 8 µg/mL (≈ 9.57 µM); in [11], 32 µg/mL (≈ 38.3 µM); in test [12] it was 16 µg/mL (≈ 19.1 µM). Also, the MIC stood at 0.39 µg/mL (≈ 0.466 µM) in test [13]; 1.56 µg/mL (≈ 1.87 µM) in test [14]; 25 µg/mL (≈ 29.9 µM) in test [15]; 12.5 µg/mL (≈ 15 µM) in [16]; 25 µg/mL (≈ 29.9 µM) in test [17]; 0.78 µg/mL (≈ 0.933 µM) in test [18]. Further, the MIC in [19] turned out to be 6.25 µg/mL (≈ 7.48 µM); in test [20], 50 µg/mL (≈ 59.8 µM); in test [21] it was 6.25 µg/mL (≈ 7.48 µM). Further, the “ED50, Oral” value in test [22] is 50 mg/kg × 2. The “ED50, Subcutaneous” value in test [22] turned out to be 3.2 mg/kg × 2.
On to `CCC1OC(=O)CC(O)C(C)C(OC2OC(C)C(O)C(N(C)C)C2OC(C)=O)C(CCOc2ccccc2)CC(C)C(=O)C=CC(C)=CC1COC1OC(C)C(O)C(OC)C1OC` (stereo not drawn) [Compound 67, 20-DH-20-O-Phenyl-2'-O-acetyldesmycosin], for which the MIC in test [1] came out at 0.25 µg/mL (≈ 0.28 µM); in test [2], 0.25 µg/mL (≈ 0.28 µM); in test [3], 0.5 µg/mL (≈ 0.56 µM); in test [4] it was 0.25 µg/mL (≈ 0.28 µM); in test [5], 0.25 µg/mL (≈ 0.28 µM); in [6] it was 0.12 µg/mL (≈ 0.135 µM). Also, the MIC worked out at 1 µg/mL (≈ 1.12 µM) in test [7]; 0.25 µg/mL (≈ 0.28 µM) in test [8]; 4 µg/mL (≈ 4.48 µM) in test [9]; 8 µg/mL (≈ 8.97 µM) in [10]; 32 µg/mL (≈ 35.9 µM) in test [11]; 16 µg/mL (≈ 17.9 µM) in [12]. Besides, the MIC is 0.78 µg/mL (≈ 0.874 µM) in test [13]; 12.5 µg/mL (≈ 14 µM) in [14]; 25 µg/mL (≈ 28 µM) in [15]; 25 µg/mL (≈ 28 µM) in test [16]; 25 µg/mL (≈ 28 µM) in test [17]; 0.39 µg/mL (≈ 0.437 µM) in test [18]. Besides, the MIC was 3.12 µg/mL (≈ 3.5 µM) in test [19], 50 µg/mL (≈ 56 µM) in [20] and 12.5 µg/mL (≈ 14 µM) in [21]. Moreover, the “ED50, Oral” value in test [22] came out at 9 mg/kg × 2. Further, the “ED50, Subcutaneous” value in [22] was 1.0 mg/kg × 2.
For `CCC1OC(=O)CC(O)C(C)C(OC2OC(C)C(OC(C)=O)C(N(C)C)C2OC(C)=O)C(CCOc2ccccc2)CC(C)C(=O)C=CC(C)=CC1COC1OC(C)C(O)C(OC)C1OC` (stereo not drawn) [Compound 68, 20-DH-20-O-Phenyl-2',4'-di-O-acetyldesmycosin], the MIC turned out to be 0.5 µg/mL (≈ 0.535 µM) in [1]; 0.5 µg/mL (≈ 0.535 µM) in test [2]; 0.5 µg/mL (≈ 0.535 µM) in test [3]; 0.5 µg/mL (≈ 0.535 µM) in test [4]; 0.5 µg/mL (≈ 0.535 µM) in test [5]; 0.12 µg/mL (≈ 0.128 µM) in test [6]. Besides, the MIC in [7] amounted to 0.5 µg/mL (≈ 0.535 µM); in test [8], 0.5 µg/mL (≈ 0.535 µM); in test [9] it was 4 µg/mL (≈ 4.28 µM); in test [10], 8 µg/mL (≈ 8.56 µM); in [11], 32 µg/mL (≈ 34.3 µM); in [12], 16 µg/mL (≈ 17.1 µM). Moreover, the MIC in test [13] was 0.39 µg/mL (≈ 0.418 µM); in test [14] it was 6.25 µg/mL (≈ 6.69 µM); in [15], 25 µg/mL (≈ 26.8 µM); in test [16] it was 25 µg/mL (≈ 26.8 µM); in [17], 25 µg/mL (≈ 26.8 µM); in test [18], 0.39 µg/mL (≈ 0.418 µM). Moreover, the MIC was 3.12 µg/mL (≈ 3.34 µM) in test [19]; “-- (Not active at 50 mcg/ml, the highest level tested)” in [20]; 12.5 µg/mL (≈ 13.4 µM) in test [21]. Moreover, the “ED50, Oral” value in [22] came out at 16 mg/kg × 2. Further, the “ED50, Subcutaneous” value in test [22] came to 2.9 mg/kg × 2.
